Our source for the Ki, IC50 and inhibition values is ChEMBL document CHEMBL1155360, “Structural characteristics of flavanones and flavones from Cudrania tricuspidata for neuraminidase inhibition” (Bioorg Med Chem Lett, 2009).

In general, Ki refers to the dissociation constant of the complex between target and ligand, obtained from inhibition or displacement. The low end stands for higher affinity, the high end for lower affinity. What is called IC50 is the midpoint of a concentration-inhibition curve. Lower therefore signals higher potency.

Test [1] can be described thus: Noncompetitive inhibition of Clostridium welchii neuraminidase by Dixon plot. Also on record: species or system Clostridium perfringens.
Test [2] in a line: (§1) Inhibition of Clostridium welchii neuraminidase. Set-up: species or system Clostridium perfringens.
For test [3], the system named is Clostridium perfringens. The test is described as §1.

Turning to `CC(C)(O)CCc1c(O)cc(O)c2c1O[C@H](c1cc3c(cc1O)OC(C)(C)C=C3)CC2=O`, the affinity in test [1] corresponds to a Ki of 0.19 µM. The compound also displayed an IC50 in test [2] of 0.38 µM. Further, in test [3], the inhibition result was “Dose-dependent effect”.
In turn, `CC(C)=CCc1cc([C@@H]2CC(=O)c3c(cc(O)c(CC=C(C)C)c3O)O2)c(O)cc1O` came in with a Ki in test [1] of 7.16 µM. In addition, in test [2], the IC50 is 10.7 µM. Further, the inhibition result in test [3] is “Dose-dependent effect”.
With `CC1(C)C=Cc2c(cc3oc(-c4ccc(O)cc4O)cc(=O)c3c2O)O1`, in test [2], the midpoint of inhibition, the IC50, lay at 6.01 µM. In test [3], the inhibition entry is “Dose-dependent effect”.
In test [1], `O=C1C[C@@H](c2ccc(O)cc2O)Oc2cc(O)cc(O)c21` returned a Ki of 7.2 µM. Moreover, half-maximal inhibition in test [2] (IC50) required 8.14 µM. Besides, the inhibition entry in test [3] was “Dose-dependent effect”.
In turn, `O=c1cc(-c2ccc(O)cc2)oc2cc(O)cc(O)c12` [APIGENIN] had an IC50 in test [2] of 22.1 µM. For the same compound, the inhibition result in test [3] was “Dose-dependent effect”.
In test [1], `CC(C)=CCc1c(O)cc2c(c1O)C(=O)C[C@@H](c1cc3c(cc1O)OC(C)(C)C=C3)O2` [CUDRAFLAVANONE A] displayed an inhibitory constant (Ki) of 2.01 µM. For the same compound, the midpoint of inhibition in test [2], the IC50, lay at 1.53 µM. The inhibition result in test [3] was “Dose-dependent effect”.
In the case of `CC(C)=CC1Oc2cc(O)ccc2-c2oc3cc4c(c(O)c3c(=O)c21)C=CC(C)(C)O4` (stereo not drawn) [CUDRAFLAVONE A], the Ki in test [1] was 44.4 µM. The IC50 in test [2] was determined as 29 µM. Further, in test [3], the inhibition result is “Dose-dependent effect”.
With `CC(C)=CCc1c(-c2ccc(O)cc2O)oc2cc3c(c(O)c2c1=O)C=CC(C)(C)O3` [CUDRAFLAVONE B], in test [1], the Ki was 10.8 µM. In test [2], this compound registered an IC50 of 10.1 µM. For the same compound, the inhibition result in test [3] is “Dose-dependent effect”.
As to `O=C1C[C@@H](c2ccc(O)c(O)c2)Oc2cc(O)cc(O)c21` [ERIODICTYOL], half-maximal inhibition in test [2] (IC50) was put at 16 µM. In test [3], the inhibition result was “Dose-dependent effect”.
Taken in the same sequence, the figures for `O=c1cc(-c2ccc(O)c(O)c2)oc2cc(O)cc(O)c12` [LUTEOLIN] were 4.6 µM and “Dose-dependent effect”.
Consider `O=c1c2cc(O)c(O)cc2oc2cc(O)c([C@@H]3O[C@H](CO)[C@@H](O)[C@H](O)[C@H]3O)c(O)c12` [MANGIFERIN], for which the IC50 in test [2] was found to be 11.2 µM. The inhibition entry in test [3] was “Dose-dependent effect”.
`O=C1C[C@@H](c2ccc(O)cc2)Oc2cc(O)cc(O)c21` [NARINGENIN]: in test [2], the IC50 was found to be 57.9 µM. The inhibition result in test [3] was “Dose-dependent effect”.
In test [1], `O=c1cc(-c2ccc(O)cc2O)oc2cc(O)cc(O)c12` [NORARTOCARPETIN] registered an inhibitory constant (Ki) of 1.96 µM. Besides, half-maximal inhibition in test [2] (IC50) was put at 1.13 µM. The inhibition entry in test [3] was “Dose-dependent effect”.
